Measured values: patent US12252524B2, “GIP/GLP1 co-agonist compounds” (Eli Lilly and Company, priority 2018, dated 2025)
Numbered stars: 1 amine (or outer) side, 2 acyl side, 3 side chain; on linkers, the order of the positions; unused ones are H or OH. Square brackets hold non-standard residues; d marks the D form. Side chains are listed from the residue outwards. Peptide text beside a SMILES is read from it. * marks the point of attachment. C20 diacid = O=C(O)CCCCCCCCCCCCCCCCCCC(=O)*; C18 diacid = O=C(O)CCCCCCCCCCCCCCCCC(=O)*; αMePhe(2-F) = C[C@](N)(Cc1ccccc1F)C(=O)O; γGlu = O=C(O)[C@H](CCC(=O)[*:2])N[*:1]; αMeL = CC(C)C[C@](C)(N)C(=O)O; αMeP = C[C@@]1(C(=O)O)CCCN1; Orn = NCCC[C@H](N)C(=O)O; AEEA = NCCOCCOCC(=O)O; Aib = CC(C)(N)C(=O)O

Key:
[1] = biological target: human GLP-1 receptor (GLP-1R) (Homo sapiens, UniProt P43220); experiment: cAMP pharmacological functional assay in presence of casein, hGLP-1R; assay type: cell-based; conditions: HEK293 cells expressing hGLP-1R, 0.1% Casein, geometric mean; read-out: hGLP1R cAMP Rel EC50 nM (SEM, n)
Sequence of human GLP-1 receptor (GLP-1R) (P43220 24-463): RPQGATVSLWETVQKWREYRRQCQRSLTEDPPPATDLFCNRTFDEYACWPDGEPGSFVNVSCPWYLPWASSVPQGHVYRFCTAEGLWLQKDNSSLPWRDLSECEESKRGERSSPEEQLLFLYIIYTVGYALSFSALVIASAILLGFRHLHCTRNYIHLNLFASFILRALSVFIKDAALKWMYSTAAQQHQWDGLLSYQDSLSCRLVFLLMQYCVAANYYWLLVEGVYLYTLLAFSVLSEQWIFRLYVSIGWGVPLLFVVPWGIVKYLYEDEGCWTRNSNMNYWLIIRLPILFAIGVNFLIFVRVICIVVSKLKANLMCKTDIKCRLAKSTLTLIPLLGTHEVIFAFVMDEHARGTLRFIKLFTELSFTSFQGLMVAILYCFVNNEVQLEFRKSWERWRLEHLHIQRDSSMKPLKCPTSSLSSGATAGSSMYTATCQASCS

[2] = biological target: T1, gastric inhibitory peptide receptor (GIPR) (Homo sapiens, UniProt P48546); experiment: cAMP pharmacological functional assay in presence of casein, hGIPR; assay type: cell-based; conditions: HEK293 cells expressing hGIPR, 0.1% Casein, geometric mean; read-out: hGIPR cAMP Rel EC50 nM (SEM, n)
T1 sequence (P48546 22-466): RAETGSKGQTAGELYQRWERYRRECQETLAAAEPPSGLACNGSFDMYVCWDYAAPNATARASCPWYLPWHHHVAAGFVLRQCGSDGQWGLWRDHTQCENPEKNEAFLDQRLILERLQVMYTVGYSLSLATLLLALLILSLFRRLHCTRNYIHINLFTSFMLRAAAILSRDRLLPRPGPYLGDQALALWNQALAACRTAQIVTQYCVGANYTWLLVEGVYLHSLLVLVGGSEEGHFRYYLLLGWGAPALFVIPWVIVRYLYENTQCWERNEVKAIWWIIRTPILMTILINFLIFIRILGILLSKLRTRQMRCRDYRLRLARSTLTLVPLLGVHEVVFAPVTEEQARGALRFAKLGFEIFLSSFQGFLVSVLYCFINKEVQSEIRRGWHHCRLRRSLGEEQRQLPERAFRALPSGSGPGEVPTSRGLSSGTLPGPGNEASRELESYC

Compound	EC50 [1] [nM]	EC50 [2] [nM]
CC[C@H](C)[C@H](NC(=O)[C@H](CC(C)C)NC(=O)[C@H](Cc1ccc(O)cc1)NC(=O)[C@H](CCC(=O)O)NC(=O)[C@@H](NC(=O)[C@H](Cc1ccccc1)NC(=O)[C@H](C)NC(=O)[C@H](CCC(N)=O)NC(=O)[C@H](CCC(N)=O)NC(=O)[C@H](C)NC(=O)[C@H](CCCCNC(=O)COCCOCCNC(=O)COCCOCCNC(=O)CC[C@H](NC(=O)CCCCCCCCCCCCCCCCCCC(=O)O)C(=O)O)NC(=O)[C@H](CCCNC(=N)N)NC(=O)[C@H](CC(=O)O)NC(=O)[C@H](CC(C)C)NC(=O)[C@H](CC(C)C)NC(=O)[C@@H](NC(=O)[C@H](CO)NC(=O)[C@H](Cc1ccc(O)cc1)NC(=O)[C@H](CC(=O)O)NC(=O)[C@H](CO)NC(=O)[C@@H](NC(=O)[C@H](Cc1ccccc1)NC(=O)[C@@H](NC(=O)CNC(=O)[C@H](CCC(=O)O)NC(=O)[C@]1(C)CCCN1C(=O)[C@@H](N)Cc1ccc(O)cc1)[C@@H](C)O)[C@@H](C)O)[C@@H](C)CC)[C@@H](C)CC)C(=O)N[C@@H](CCC(=O)O)C(=O)NCC(=O)NCC(=O)N1CCC[C@H]1C(=O)N[C@@H](CO)C(=O)N[C@@H](CO)C(=O)NCC(=O)N[C@@H](C)C(=O)N1CCC[C@H]1C(=O)N1CCC[C@H]1C(=O)N1CCC[C@H]1C(=O)N[C@@H](CO)C(N)=O [Example 195] (H-Y[αMeP]EGTFTSDYSILLDRK([AEEA-AEEA-γGlu-C20 diacid])AQQAFIEYLIEGGPSSGAPPPS-NH2)	0.0966	0.193
CC[C@H](C)[C@H](NC(=O)[C@H](CC(C)C)NC(=O)[C@H](Cc1ccc(O)cc1)NC(=O)[C@H](CCC(=O)O)NC(=O)[C@@H](NC(=O)[C@H](Cc1ccccc1)NC(=O)[C@H](C)NC(=O)[C@@H]1CCCN1C(=O)[C@H](CCC(N)=O)NC(=O)[C@H](C)NC(=O)[C@H](CCCCNC(=O)COCCOCCNC(=O)COCCOCCNC(=O)CC[C@H](NC(=O)CCCCCCCCCCCCCCCCC(=O)O)C(=O)O)NC(=O)[C@H](CCCCN)NC(=O)[C@H](CC(=O)O)NC(=O)[C@H](CC(C)C)NC(=O)[C@H](CC(C)C)NC(=O)[C@@H](NC(=O)[C@H](CO)NC(=O)[C@H](Cc1ccc(O)cc1)NC(=O)[C@H](CC(=O)O)NC(=O)[C@H](CO)NC(=O)[C@@H](NC(=O)[C@H](Cc1ccccc1)NC(=O)[C@@H](NC(=O)CNC(=O)[C@H](CCC(=O)O)NC(=O)C(C)(C)NC(=O)[C@@H](N)Cc1ccc(O)cc1)[C@@H](C)O)[C@@H](C)O)[C@@H](C)CC)[C@@H](C)CC)C(=O)N[C@@H](CCC(=O)O)C(=O)NCC(=O)NCC(N)=O [Example 275] (H-Y[Aib]EGTFTSDYSILLDKK([AEEA-AEEA-γGlu-C18 diacid])AQPAFIEYLIEGG-NH2)	14	> 30
CC[C@H](C)[C@H](NC(=O)[C@H](CC(C)C)NC(=O)[C@H](Cc1ccc(O)cc1)NC(=O)[C@@H](CCC(=O)O)NC(=O)[C@@H](NC(=O)[C@H](Cc1ccccc1)NC(=O)[C@H](CCC(=O)O)NC(=O)C(C)(C)NC(=O)[C@H](CCC(N)=O)NC(=O)[C@H](C)NC(=O)[C@H](CCCCN)NC(=O)[C@H](CCCN)NC(=O)[C@H](CC(=O)O)NC(=O)[C@H](CC(C)C)NC(=O)[C@](C)(CC(C)C)NC(=O)[C@@H](NC(=O)[C@H](CO)NC(=O)[C@H](Cc1ccc(O)cc1)NC(=O)[C@H](CC(=O)O)NC(=O)[C@H](CO)NC(=O)[C@@H](NC(=O)[C@](C)(Cc1ccccc1F)NC(=O)[C@@H](NC(=O)CNC(=O)[C@H](CCC(=O)O)NC(=O)C(C)(C)NC(=O)[C@@H](N)Cc1ccc(O)cc1)[C@@H](C)O)[C@@H](C)O)[C@@H](C)CC)[C@@H](C)CC)C(=O)N[C@@H](CCC(=O)O)C(=O)NCC(=O)NCC(=O)N1CCC[C@H]1C(=O)N[C@@H](CO)C(=O)N[C@@H](CO)C(=O)NCC(=O)N[C@@H](C)C(=O)N1CCC[C@H]1C(=O)N1CCC[C@H]1C(=O)N1CCC[C@H]1C(=O)N[C@@H](CO)C(=O)N[C@@H](CS)C(N)=O [Example 282] (H-Y[Aib]EGT[αMePhe(2-F)]TSDYSI[αMeL]LD[Orn]KAQ[Aib]EFI[dE]YLIEGGPSSGAPPPSC-NH2)	0.247	0.323
CC[C@H](C)[C@H](NC(=O)[C@H](CC(C)C)NC(=O)[C@H](Cc1ccc(O)cc1)NC(=O)[C@H](CCC(=O)O)NC(=O)[C@@H](NC(=O)[C@H](Cc1ccccc1)NC(=O)[C@H](C)NC(=O)[C@H](CCC(N)=O)NC(=O)[C@H](CCC(N)=O)NC(=O)[C@H](C)NC(=O)[C@H](CCCCNC(=O)COCCOCCNC(=O)COCCOCCNC(=O)CC[C@H](NC(=O)CCCCCCCCCCCCCCCCCCC(=O)O)C(=O)O)NC(=O)[C@H](CCC(=O)O)NC(=O)[C@H](CC(=O)O)NC(=O)[C@H](CC(C)C)NC(=O)[C@H](CC(C)C)NC(=O)[C@@H](NC(=O)[C@H](CO)NC(=O)[C@H](Cc1ccc(O)cc1)NC(=O)[C@H](CC(=O)O)NC(=O)[C@H](CO)NC(=O)[C@@H](NC(=O)[C@H](Cc1ccccc1)NC(=O)[C@@H](NC(=O)CNC(=O)[C@H](CCC(=O)O)NC(=O)[C@]1(C)CCCN1C(=O)[C@@H](N)Cc1ccc(O)cc1)[C@@H](C)O)[C@@H](C)O)[C@@H](C)CC)[C@@H](C)CC)C(=O)N[C@@H](CCC(=O)O)C(=O)NCC(=O)NCC(=O)N1CCC[C@H]1C(=O)N[C@@H](CO)C(=O)N[C@@H](CO)C(=O)NCC(=O)N[C@@H](C)C(=O)N1CCC[C@H]1C(=O)N1CCC[C@H]1C(=O)N1CCC[C@H]1C(=O)N[C@@H](CO)C(N)=O [Example 193] (H-Y[αMeP]EGTFTSDYSILLDEK([AEEA-AEEA-γGlu-C20 diacid])AQQAFIEYLIEGGPSSGAPPPS-NH2)	0.162	0.336
CC[C@H](C)[C@H](NC(=O)[C@H](CC(C)C)NC(=O)[C@H](Cc1ccc(O)cc1)NC(=O)[C@H](CCC(=O)O)NC(=O)[C@@H](NC(=O)[C@H](Cc1ccccc1)NC(=O)[C@H](C)NC(=O)[C@H](CCC(=O)O)NC(=O)[C@H](CCC(N)=O)NC(=O)[C@H](C)NC(=O)[C@H](CCCCNC(=O)COCCOCCNC(=O)COCCOCCNC(=O)CC[C@H](NC(=O)CCCCCCCCCCCCCCCCCCC(=O)O)C(=O)O)NC(=O)[C@H](CCCCN)NC(=O)[C@H](CC(=O)O)NC(=O)[C@H](CC(C)C)NC(=O)[C@H](CC(C)C)NC(=O)[C@@H](NC(=O)[C@H](CO)NC(=O)[C@H](Cc1ccc(O)cc1)NC(=O)[C@H](CC(=O)O)NC(=O)[C@H](CO)NC(=O)[C@@H](NC(=O)[C@H](Cc1ccccc1)NC(=O)[C@@H](NC(=O)CNC(=O)[C@H](CCC(=O)O)NC(=O)C(C)(C)NC(=O)[C@@H](N)Cc1ccc(O)cc1)[C@@H](C)O)[C@@H](C)O)[C@@H](C)CC)[C@@H](C)CC)C(=O)N[C@@H](CCC(=O)O)C(=O)NCC(=O)NCC(=O)N1CCC[C@H]1C(=O)N[C@@H](CO)C(=O)N[C@@H](CO)C(=O)NCC(=O)N[C@@H](C)C(=O)N1CCC[C@H]1C(=O)N1CCC[C@H]1C(=O)N1CCC[C@H]1C(=O)N[C@@H](CO)C(N)=O [Example 261] (H-Y[Aib]EGTFTSDYSILLDKK([AEEA-AEEA-γGlu-C20 diacid])AQEAFIEYLIEGGPSSGAPPPS-NH2)	0.0948	0.16
